Reference: ChEMBL document CHEMBL4138123, “Design, synthesis and biological evaluation of novel pyrazolochalcones as potential modulators of PI3K/Akt/mTOR pathway and inducers of apoptosis in breast cancer cells” (Eur J Med Chem, 2017)

Assays:
Type in all cases: functional
UO-31 = assay: Cytotoxicity against human UO31 cells assessed as growth inhibition after 48 hrs by sulforhodamine B assay; details: UO-31, 48 h
KM12 = assay: Cytotoxicity against human KM12 cells assessed as cell growth at 100 uM after 48 hrs by sulforhodamine B assay relative to control; details: KM12, 48 h, read-out: Activity
SF-539 [1] = assay: Cytotoxicity against human SF539 cells assessed as cell growth at 10 uM after 48 hrs by sulforhodamine B assay relative to control; details: SF-539, 48 h, read-out: Activity
MDA-MB-468 = assay: Cytotoxicity against human MDA-MB-468 cells assessed as cell growth at 100 uM after 48 hrs by sulforhodamine B assay relative to control; details: MDA-MB-468, 48 h, read-out: Activity
SK-MEL-5 = assay: Cytotoxicity against human SK-MEL-5 cells assessed as cell growth at 1 uM after 48 hrs by sulforhodamine B assay relative to control; details: SK-MEL-5, 48 h, read-out: Activity
A498 = assay: Cytotoxicity against human A498 cells assessed as cell growth at 0.01 uM after 48 hrs by sulforhodamine B assay relative to control; details: A498, 48 h, read-out: Activity
HCT-116 = assay: Cytotoxicity against human HCT116 cells assessed as cell growth at 0.1 uM after 48 hrs by sulforhodamine B assay relative to control; details: HCT-116, 48 h, read-out: Activity
NCI-H522 [2] = assay: Cytotoxicity against human NCI-H522 cells assessed as cell growth at 0.01 uM after 48 hrs by sulforhodamine B assay relative to control; details: NCI-H522, 48 h, read-out: Activity
U-251 [3] = assay: Cytotoxicity against human U251 cells assessed as cell growth at 0.1 uM after 48 hrs by sulforhodamine B assay relative to control; details: U-251, 48 h, read-out: Activity
T47D [4] = assay: Cytotoxicity against human T47D cells assessed as cell growth at 0.01 uM after 48 hrs by sulforhodamine B assay relative to control; details: read-out: Activity
M14 = assay: Cytotoxicity against human M14 cells assessed as cell growth at 0.01 uM after 48 hrs by sulforhodamine B assay relative to control; details: M14, 48 h, read-out: Activity
A549 [5] = assay: Cytotoxicity against human A549/ATCC cells assessed as cell growth at 0.01 uM after 48 hrs by sulforhodamine B assay relative to control; details: A549, 48 h, read-out: Activity
UACC-62 [6] = assay: Cytotoxicity against human UACC62 cells assessed as cell growth at 0.1 uM after 48 hrs by sulforhodamine B assay relative to control; details: UACC-62, 48 h, read-out: Activity
MDA-MB-435 = assay: Cytotoxicity against human MDA-MB-435 cells assessed as cell growth at 0.1 uM after 48 hrs by sulforhodamine B assay relative to control; details: MDA-MB-435, 48 h, read-out: Activity
NCI/ADR-RES = assay: Cytotoxicity against human NCI/ADR-RES cells assessed as growth inhibition after 48 hrs by sulforhodamine B assay
DU-145 = assay: Cytotoxicity against human DU145 cells assessed as cell growth at 1 uM after 48 hrs by sulforhodamine B assay relative to control; details: DU-145, 48 h, read-out: Activity
U-251 [7] = assay: Cytotoxicity against human U251 cells assessed as growth inhibition after 48 hrs by sulforhodamine B assay; details: U-251, 48 h
OVCAR-5 = assay: Cytotoxicity against human OVCAR5 cells assessed as cell growth at 100 uM after 48 hrs by sulforhodamine B assay relative to control; details: OVCAR-5, 48 h, read-out: Activity
T47D [8] = assay: Cytotoxicity against human T47D cells assessed as cell growth at 0.1 uM after 48 hrs by sulforhodamine B assay relative to control; details: read-out: Activity
T47D [9] = assay: Cytotoxicity against human T47D cells assessed as growth inhibition after 48 hrs by sulforhodamine B assay
Malme-3M = assay: Cytotoxicity against human MALME-3M cells assessed as cell growth at 0.1 uM after 48 hrs by sulforhodamine B assay relative to control; details: read-out: Activity
A549 [10] = assay: Cytotoxicity against human A549/ATCC cells assessed as growth inhibition after 48 hrs by sulforhodamine B assay; details: A549, 48 h
SF-539 [11] = assay: Cytotoxicity against human SF539 cells assessed as cell growth at 0.01 uM after 48 hrs by sulforhodamine B assay relative to control; details: SF-539, 48 h, read-out: Activity
NCI-H23 = assay: Cytotoxicity against human NCI-H23 cells assessed as cell growth at 1 uM after 48 hrs by sulforhodamine B assay relative to control; details: NCI-H23, 48 h, read-out: Activity
OVCAR-3 = assay: Cytotoxicity against human OVCAR3 cells assessed as cell growth at 1 uM after 48 hrs by sulforhodamine B assay relative to control; details: OVCAR-3, 48 h, read-out: Activity
NCI-H460 [12] = assay: Cytotoxicity against human NCI-H460 cells assessed as cell growth at 100 uM after 48 hrs by sulforhodamine B assay relative to control; details: NCI-H460, 48 h, read-out: Activity
NCI-H460 [13] = assay: Cytotoxicity against human NCI-H460 cells assessed as cell growth at 1 uM after 48 hrs by sulforhodamine B assay relative to control; details: NCI-H460, 48 h, read-out: Activity
SK-OV-3 = assay: Cytotoxicity against human SKOV3 cells assessed as cell growth at 0.01 uM after 48 hrs by sulforhodamine B assay relative to control; details: SK-OV-3, 48 h, read-out: Activity
HCT-15 = assay: Cytotoxicity against human HCT15 cells assessed as growth inhibition after 48 hrs by sulforhodamine B assay; details: HCT-15, 48 h
UACC-62 [14] = assay: Cytotoxicity against human UACC62 cells assessed as growth inhibition after 48 hrs by sulforhodamine B assay; details: UACC-62, 48 h
NCI-H522 [15] = assay: Cytotoxicity against human NCI-H522 cells assessed as cell growth at 10 uM after 48 hrs by sulforhodamine B assay relative to control; details: NCI-H522, 48 h, read-out: Activity
MDA-MB-231 [16] = assay: Cytotoxicity against human MDA-MB-231 cells assessed as growth inhibition after 48 hrs by sulforhodamine B assay; details: MDA-MB-231, 48 h
RXF 393 = assay: Cytotoxicity against human RXF393 cells assessed as growth inhibition after 48 hrs by sulforhodamine B assay; details: RXF 393, 48 h
MDA-MB-231 [17] = assay: Cytotoxicity against human MDA-MB-231 cells assessed as cell growth at 0.1 uM after 48 hrs by sulforhodamine B assay relative to control; details: MDA-MB-231, 48 h, read-out: Activity
SF-268 = assay: Cytotoxicity against human SF268 cells assessed as cell growth at 10 uM after 48 hrs by sulforhodamine B assay relative to control; details: SF-268, 48 h, read-out: Activity

Compound: COc1cc(-c2cc(/C=C/C(=O)c3ccc(N)cc3)[nH]n2)cc(OC)c1OC
- GI50 (UO-31): 1.36 µM
- LC50 (UO-31): 6 µM
- TGI (UO-31): 2.86 µM
- growth at 100 µM (KM12): -79%
- growth at 10 µM (SF-539 [1]): -93%
- growth at 100 µM (MDA-MB-468): -65%
- growth at 1 µM (SK-MEL-5): 90%
- growth at 0.01 µM (A498): 91%
- growth at 0.1 µM (HCT-116): 97%
- growth at 0.01 µM (NCI-H522 [2]): 92%
- growth at 0.1 µM (U-251 [3]): 94%
- growth at 0.01 µM (T47D [4]): 83%
- growth at 0.01 µM (M14): 94%
- growth at 0.01 µM (A549 [5]): 96%
- growth at 0.1 µM (UACC-62 [6]): 99%
- growth at 0.1 µM (MDA-MB-435): 95%
- GI50 (NCI/ADR-RES): 3.8 µM
- LC50 (NCI/ADR-RES): > 100 µM
- TGI (NCI/ADR-RES): 65.8 µM
- growth at 1 µM (DU-145): 78%
- GI50 (U-251 [7]): 1.42 µM
- LC50 (U-251 [7]): 5.39 µM
- TGI (U-251 [7]): 2.77 µM
- growth at 100 µM (OVCAR-5): -66%
- growth at 0.1 µM (T47D [8]): 85%
- GI50 (T47D [9]): 1.42 µM
- LC50 (T47D [9]): > 100 µM
- TGI (T47D [9]): 4.3 µM
- growth at 0.1 µM (Malme-3M): 102%
- GI50 (A549 [10]): 2.08 µM
- LC50 (concentration giving 50% net cell kill) (A549 [10]): 86.5 µM
- TGI (A549 [10]): 7.02 µM
- growth at 0.01 µM (SF-539 [11]): 92%
- growth at 1 µM (NCI-H23): 95%
- growth at 1 µM (OVCAR-3): 79%
- growth at 100 µM (NCI-H460 [12]): -59%
- growth at 1 µM (NCI-H460 [13]): 78%
- growth at 0.01 µM (SK-OV-3): 82%
- GI50 (HCT-15): 1.37 µM
- LC50 (HCT-15): > 100 µM
- TGI (HCT-15): 6.76 µM
- GI50 (UACC-62 [14]): 1.7 µM
- LC50 (UACC-62 [14]): 7.51 µM
- TGI (UACC-62 [14]): 3.58 µM
- growth at 10 µM (NCI-H522 [15]): -51%
- GI50 (MDA-MB-231 [16]): 2.06 µM
- LC50 (MDA-MB-231 [16]): 47.5 µM
- TGI (MDA-MB-231 [16]): 12.2 µM
- GI50 (RXF 393): 1.35 µM
- LC50 (concentration killing 50% of cells) (RXF 393): 7.79 µM
- TGI (RXF 393): 3.24 µM
- growth at 0.1 µM (MDA-MB-231 [17]): 91%
- growth at 10 µM (SF-268): -55%

Compound: COc1ccc(C(=O)/C=C/c2cc(-c3ccc(OC)c(OC)c3)n[nH]2)cc1OC
- GI50 (UO-31): 1.5 µM
- TGI (UO-31): 3.8 µM
- growth at 100 µM (KM12): -74%
- growth at 10 µM (SF-539 [1]): -51%
- growth at 100 µM (MDA-MB-468): -64%
- growth at 1 µM (SK-MEL-5): 86%
- growth at 0.01 µM (A498): 82%
- growth at 0.1 µM (HCT-116): 88%
- growth at 0.01 µM (NCI-H522 [2]): 91%
- growth at 0.1 µM (U-251 [3]): 89%
- growth at 0.01 µM (T47D [4]): 82%
- growth at 0.01 µM (M14): 89%
- growth at 0.01 µM (A549 [5]): 97%
- growth at 0.1 µM (UACC-62 [6]): 96%
- growth at 0.1 µM (MDA-MB-435): 94%
- GI50 (NCI/ADR-RES): 3.43 µM
- TGI (NCI/ADR-RES): 33.1 µM
- growth at 1 µM (DU-145): 73%
- GI50 (U-251 [7]): 1.2 µM
- TGI (U-251 [7]): 2.63 µM
- growth at 100 µM (OVCAR-5): -41%
- growth at 0.1 µM (T47D [8]): 86%
- GI50 (T47D [9]): 1.36 µM
- TGI (T47D [9]): 6.65 µM
- growth at 0.1 µM (Malme-3M): 106%
- GI50 (A549 [10]): 2.25 µM
- TGI (A549 [10]): 10.2 µM
- growth at 0.01 µM (SF-539 [11]): 89%
- growth at 1 µM (NCI-H23): 94%
- growth at 1 µM (OVCAR-3): 88%
- growth at 100 µM (NCI-H460 [12]): -42%
- growth at 1 µM (NCI-H460 [13]): 36%
- growth at 0.01 µM (SK-OV-3): 83%
- GI50 (HCT-15): 1.09 µM
- TGI (HCT-15): 5.39 µM
- GI50 (UACC-62 [14]): 1.86 µM
- TGI (UACC-62 [14]): 4.08 µM
- growth at 10 µM (NCI-H522 [15]): -56%
- GI50 (MDA-MB-231 [16]): 1.88 µM
- TGI (MDA-MB-231 [16]): 6.38 µM
- GI50 (RXF 393): 1.45 µM
- TGI (RXF 393): 2.98 µM
- growth at 0.1 µM (MDA-MB-231 [17]): 99%
- growth at 10 µM (SF-268): -1%
